Experimental data published in patent US20250333509A1, “METHODS FOR TREATING CANCER, OR VON-HIPPEL LINDAU DISEASE USING A COMBINATION OF A TIGIT ANTAGONIST, A PD-1 ANTAGONIST, AND A HIF-2-ALPHA INHIBITOR” (MERCK SHARP & DOHME LLC, priority 2022, published 2025).

B1: Anti-TIGIT (antibody)
heavy: QVQLMESGPGLVQPSQTLSLTCTVSGFPLTSYTVHWVRQPPGKGLEWIGAIWSSGSTDYNSALKSRLNINRDSSKSQVFLKMNSLQTEDTAIYFCTKSGWAFFDYWGQGVMVTVSSAKTTAPSVYPLAPVCGDTTGSSVTLGCLVKGYFPEPVTLTWNSGSLSSGVHTFPAVLQSDLYTLSSSVTVTSSTWPSQSITCNVAHPASSTKVDKKIEPRGPTIKPCPPCKCPAPNLLGGPSVFIFPPKIKDVLMISLSPIVTCVVVDVSEDDPDVQISWFVNNVEVHTAQTQTHREDYNSTLRVVSALPIQHQDWMSGKEFKCKVNNKDLPAPIERTISKPKGSVRAPQVYVLPPPEEEMTKKQVTLTCMVTDFMPEDIYVEWTNNGKTELNYKNTEPVLDSDGSYFMYSKLRVEKKNWVERNSYSCSVVHEGLHNHHTTKSFSRTPGK
light: DIQMTQSPSLLSASVGDRVTLNCIASQNIYKSLAWYQLKLGEAPKLLIYNANSLQAGIPSRFSGSGSGTDFALTISGLQPEDVATYFCQQYSGGYTFGAGTKLELKRADAAPTVSIFPPSSEQLTSGGASVVCFLNNFYPKDINVKWKIDGSERQNGVLNSWTDQDSKDSTYSMSSTLTLTKDEYERHNSYTCEATHKTSTSPIVKSFNRNEC
B2: Anti-PD-1 (antibody)
heavy: EVQLVESGGGLVQPGGSLKLSCAASGFTFSNSGLAWVRQAPEKGLEWVATITYNGTSTYYRDSVKGRFTISRDNAKNTLYLQMSSLRSEDTATYYCARWVPGSGNFDYWGQGTLVTVSSAKTTPPSVYPLAPGSAAQTNSMVTLGCLVKGYFPEPVTVTWNSGSLSSGVHTFPAVLQSDLYTLSSSVTVPSSTWPSETVTCNVAHPASSTKVDKKIVPRDCGCKPCICTVPEVSSVFIFPPKPKDVLTITLTPKVTCVVVAISKDDPEVQFSWFVDDVEVHTAQTQPREEQFNSTFRSVSELPIMHQDWLNGKEFKCRVNSAAFPAPIEKTISKTKGRPKAPQVYTIPPPKEQMAKDKVSLTCMITDFFPEDITVEWQWNGQPAENYKNTQPIMDTDGSYFVYSKLNVQKSNWEAGNTFTCSVLHEGLHNHHTEKSLSHSPGK
light: DIVLTQSPASLAVSLGQRATISCRASQSVTISRYTLMHWYQQKPGQPPKLLIYRASNLASGIPARFSGSGSGTDFTLNIHPVEEDDAATYYCQQSRESPWTFGGGTKLEIKRADAAPTVSIFPPSSEQLTSGGASVVCFLNNFYPKDINVKWKIDGSERQNGVLNSWTDQDSKDSTYSMSSTLTLTKDEYERHNSYTCEATHKTSTSPIVKSFNRNEC

How the values were obtained:
CT26 tumors = assay: CT26 mouse syngeneic tumor model: tumor growth inhibition and tumor regressions; format: in vivo; conditions: CT26 tumors in female BALB/cAnn mice, 10 per group, anti-PD-1 5 mg/kg ip every 5 days, anti-TIGIT 10 mg/kg ip every 5 days, belzutifan 3 mg/kg orally twice daily; for Tumor growth inhibition (TGI) % at Day 16: Day 16 when control animals exited study; for Number of complete tumor regressions (CRs) at end of study / Number of partial tumor regressions (PRs) at end of study: end of study (Day 43)
From the text: The present Example describes preclinical data using a TIGIT antagonist and a PD-1 antagonist in combination with belzutifan, using mouse syngeneic models.
Prior to treatment initiation, female BALB/cAnn mice aged 7 weeks weighing between 18 to 21 grams were anesthetized and injected subcutaneously into the rear flank with 0.3×10^6 log-phase sub-confluent CT26 cells. Mice were pair-matched into treatment groups consisting of 10 mice per group when the mean tumor volume of inoculated CT26 tumors reached approximately 150 mm^3.
Treatment groups consisted of: • 1) Isotype mouse IgG1 (mIgG1) antibody+Isotype mouse IgG2a (mIgG2a) antibody+0.5% methylcellulose (vehicle); • 2) anti-PD-1 mIgG1 antibody+Isotype mIgG2a antibody+vehicle; • 3) anti-TIGIT mIgG2a antibody+Isotype mIgG1 antibody+vehicle; • 4) Isotype mIgG1 antibody+Isotype mIgG2a antibody+belzutifan; • 5) anti-PD-1 mIgG1 antibody+anti-TIGIT mIgG2a antibody+vehicle; • 6) anti-PD-1 mIgG1 antibody+Isotype mIgG2a antibody+belzutifan; • 7) Isotype mIgG1 antibody+anti-TIGIT mIgG2a antibody+belzutifan; and • 8) anti-PD-1 mIgG1 antibody+anti-TIGIT mIgG2a antibody+belzutifan.
Isotype mIgG1 and anti-PD-1 antibodies were dosed intraperitoneally every 5 days at 5 mg/kg body weight. Isotype mIgG2a and anti-TIGIT antibodies were dosed intraperitoneally every 5 days at 10 mg/kg body weight. Belzutifan was dosed orally twice daily at 3 mg/kg body weight. Start of treatments was considered Day 0 and dosing based on schedules continued as described until Day 43. Caliper measurements of tumors and body weights were captured twice weekly. Statistical analyses were performed by 2-sided student t-test of final 2 groups at Day 43 when study ended.

[1] = test system: RCC associated with VHL disease, CNS hemangioblastomas, pancreatic neuroendocrine tumors; conditions: cited from earlier work
[2] = AE profile of belzutifan; cited from earlier work
[3] = patients with RCC associated with VHL disease who received belzutifan

Row | Molecule | Tumor growth inhibition (TGI) % at Day 16 (CT26 tumors) [%] | Number of complete tumor regressions (CRs) at end of study (CT26 tumors) | Number of partial tumor regressions (PRs) at end of study (CT26 tumors) | patients with a response after treatment ([1]; patients with CNS hemangioblastomas) [%] | patients with a confirmed objective response [1, 3] [%] | reduction in renal tumor size [1, 3] | patients who responded after treatment ([1]; patients with pancreatic neuroendocrine tumors) [%] | adverse events associated with treatment [2]
1 | CS(=O)(=O)c1ccc(Oc2cc(F)cc(C#N)c2)c2c1[C@H](O)[C@H](F)[C@@H]2F [belzutifan, 3-[(1S,2S,3R)-2,3-Difluoro-1-hydroxy-7-methylsulfonyl-indan-4-yl]oxy-5-fluoro-benzonitrile] | 5.8 | 0 CRs, 0 PRs | 0 CRs, 0 PRs | 30 | 49 | most patients had a reduction in renal tumor size | 91 | anemia and hypoxia have been associated with belzutifan treatment
2 | B1 | 47.4 | 0 CRs, 0 PRs | 0 CRs, 0 PRs | – | – | – | – | –
3 | B2 | 4.8 | 0 | 1 | – | – | – | – | –
